Active and inactive are the calls of the source. The rule behind the calls is not given here.
Legend:
MCF7 [1] = test: Antiproliferative activity against human MCF7 cells assessed as reduction in cell viability after 48 hrs by MTT assay; type: functional, cell-based; conditions: MCF7, 48 h
MDA-MB-231 [2] = test: Antiproliferative activity against human MDA-MB-231 cells assessed as reduction in cell viability after 48 hrs by MTT assay; type: functional, cell-based; conditions: MDA-MB-231, 48 h
A549 = test: Antiproliferative activity against human A549 cells assessed as reduction in cell viability after 48 hrs by MTT assay; type: functional, cell-based; conditions: A549, 48 h
HT-29 = test: Antiproliferative activity against human HT-29 cells assessed as reduction in cell viability after 48 hrs by MTT assay; type: functional, cell-based; conditions: HT-29, 48 h
HUVEC = test: Cytotoxicity against human HUVEC cells assessed as reduction in cell viability after 48 hrs by MTT assay; type: cell-based
MDA-MB-231 [3] = test: Potency index, ratio of hecogenin IC50 to test compound IC50 for antiproliferative activity against human MDA-MB-231 cells; type: functional
MCF7 [4] = test: Potency index, ratio of hecogenin IC50 to test compound IC50 for antiproliferative activity against human MCF7 cells; type: functional
MDA-MB-231 [5] = test: Induction of apoptosis in human MDA-MB-231 cells assessed as increase in early apoptotic cells at 10 uM by annexin V-FITC/propidium iodide staining based flow cytometric analysis; type: functional, cell-based; conditions: time 3-9 hrs, TDE = time-dependent effect
MDA-MB-231 [6] = test: Induction of apoptosis in human MDA-MB-231 cells assessed as increase in late apoptotic cells at 10 uM by annexin V-FITC/propidium iodide staining based flow cytometric analysis; type: functional, cell-based; conditions: time 3-9 hrs, TDE = time-dependent effect
MDA-MB-231 [7] = test: Induction of apoptosis in human MDA-MB-231 cells assessed as viable cells at 10 uM after 3 hrs by annexin V-FITC/propidium iodide staining based flow cytometric analysis (reference value: 91.2%); type: functional; conditions: read-out: Activity
MDA-MB-231 [8] = test: Induction of apoptosis in human MDA-MB-231 cells assessed as viable cells at 10 uM after 6 hrs by annexin V-FITC/propidium iodide staining based flow cytometric analysis (reference value: 91.2%); type: functional; conditions: read-out: Activity
MDA-MB-231 [9] = test: Induction of apoptosis in human MDA-MB-231 cells assessed as viable cells at 10 uM after 9 hrs by annexin V-FITC/propidium iodide staining based flow cytometric analysis (reference value: 91.2%); type: functional; conditions: read-out: Activity
MDA-MB-231 [10] = test: Induction of apoptosis in human MDA-MB-231 cells assessed as early apoptotic cells at 10 uM after 3 hrs by annexin V-FITC/propidium iodide staining based flow cytometric analysis (reference value: 2.7%); type: functional
MDA-MB-231 [11] = test: Induction of apoptosis in human MDA-MB-231 cells assessed as early apoptotic cells at 10 uM after 6 hrs by annexin V-FITC/propidium iodide staining based flow cytometric analysis (reference value: 2.7%); type: functional
MDA-MB-231 [12] = test: Induction of apoptosis in human MDA-MB-231 cells assessed as early apoptotic cells at 10 uM after 9 hrs by annexin V-FITC/propidium iodide staining based flow cytometric analysis (reference value: 2.7%); type: functional
MDA-MB-231 [13] = test: Induction of apoptosis in human MDA-MB-231 cells assessed as late apoptotic cells at 10 uM after 3 hrs by annexin V-FITC/propidium iodide staining based flow cytometric analysis (reference value: 3.1%); type: functional
MDA-MB-231 [14] = test: Induction of apoptosis in human MDA-MB-231 cells assessed as late apoptotic cells at 10 uM after 6 hrs by annexin V-FITC/propidium iodide staining based flow cytometric analysis (reference value: 3.1%); type: functional
MDA-MB-231 [15] = test: Induction of apoptosis in human MDA-MB-231 cells assessed as late apoptotic cells at 10 uM after 9 hrs by annexin V-FITC/propidium iodide staining based flow cytometric analysis (reference value: 3.1%); type: functional
MDA-MB-231 [16] = test: Induction of apoptosis in human MDA-MB-231 cells assessed as necrotic cells at 10 uM after 3 hrs by annexin V-FITC/propidium iodide staining based flow cytometric analysis (reference value: 3%); type: functional
MDA-MB-231 [17] = test: Induction of apoptosis in human MDA-MB-231 cells assessed as necrotic cells at 10 uM after 6 hrs by annexin V-FITC/propidium iodide staining based flow cytometric analysis (reference value: 3%); type: functional
MDA-MB-231 [18] = test: Induction of apoptosis in human MDA-MB-231 cells assessed as necrotic cells at 10 uM after 9 hrs by annexin V-FITC/propidium iodide staining based flow cytometric analysis (reference value: 3%); type: functional
MDA-MB-231 [19] = test: Induction of cell cycle arrest in human MDA-MB-231 cells assessed as accumulation at sub-G1 phase at 10 uM after 48 hrs by propidium iodide staining based flow cytometric analysis (reference value: 3.25%); type: functional
MDA-MB-231 [20] = test: Induction of cell cycle arrest in human MDA-MB-231 cells assessed as accumulation at sub-G1 phase at 20 uM after 48 hrs by propidium iodide staining based flow cytometric analysis (reference value: 3.25%); type: functional
MDA-MB-231 [21] = test: Induction of cell cycle arrest in human MDA-MB-231 cells assessed as accumulation at sub-G1 phase at 40 uM after 48 hrs by propidium iodide staining based flow cytometric analysis (reference value: 3.25%); type: functional
MCF7 [22] = test: Induction of cell cycle arrest in human MCF7 cells assessed as accumulation at sub-G1 phase at 10 uM after 48 hrs by propidium iodide staining based flow cytometric analysis (reference value: 3.04%); type: functional
MCF7 [23] = test: Induction of cell cycle arrest in human MCF7 cells assessed as accumulation at sub-G1 phase at 20 uM after 48 hrs by propidium iodide staining based flow cytometric analysis (reference value: 3.04%); type: functional
MCF7 [24] = test: Induction of cell cycle arrest in human MCF7 cells assessed as accumulation at sub-G1 phase at 40 uM after 48 hrs by propidium iodide staining based flow cytometric analysis (reference value: 3.04%); type: functional
MCF7 [25] = test: Induction of cell cycle arrest in human MCF7 cells assessed as accumulation at sub-G1 phase after 48 hrs by propidium iodide staining based flow cytometric analysis; type: functional; conditions: dose 10-40 µM
MDA-MB-231 [26] = test: Induction of cell cycle arrest in human MDA-MB-231 cells assessed as accumulation at sub-G1 phase after 48 hrs by propidium iodide staining based flow cytometric analysis; type: functional; conditions: dose 10-40 µM
MDA-MB-231 [27] = test: Inhibition of cell migration in human MDA-MB-231 cells at 20 uM after 20 hrs by inverted microscopic method; type: functional, cell-based
MDA-MB-231 [28] = test: Antiinvasive activity against in human MDA-MB-231 cells at 20 uM after 24 hrs by matrigel coated transwell assay; type: functional, cell-based

SMILES: CC(=O)O[C@H]1CC[C@@]2(C)[C@@H](CC[C@H]3[C@@H]4CC=C(/C(C)=N/NC(=S)Nc5ccccc5C)[C@@]4(C)C(=O)C[C@@H]32)C1
- IC50 (MCF7 [1]): 7.08 µM
- IC50 (MDA-MB-231 [2]): 14.1 µM
- IC50 (A549): 17.1 µM
- IC50 (HT-29): 13.2 µM

SMILES: CC(=O)O[C@H]1CC[C@@]2(C)[C@@H](CC[C@H]3[C@@H]4CC=C(/C(C)=N/NC(=S)Nc5ccc(C(F)(F)F)cc5)[C@@]4(C)C(=O)C[C@@H]32)C1
- IC50 (MCF7 [1]): 6.86 µM
- IC50 (MDA-MB-231 [2]): 11.8 µM
- IC50 (A549): 9.75 µM
- IC50 (HT-29): 11.3 µM

SMILES: CC(=O)O[C@H]1CC[C@@]2(C)[C@@H](CC[C@H]3[C@@H]4CC=C(/C(C)=N/NC(N)=O)[C@@]4(C)C(=O)C[C@@H]32)C1
- IC50 (MCF7 [1]): 1.74 µM
- IC50 (MDA-MB-231 [2]): 5.89 µM
- IC50 (A549): 6.84 µM
- IC50 (HT-29): 7.69 µM
- IC50 (HUVEC): > 100 µM
- Ratio IC50 (MDA-MB-231 [3]): >10
- Ratio IC50 (MCF7 [4]): >10

SMILES: CC(=O)O[C@H]1CC[C@@]2(C)[C@@H](CC[C@@H]3[C@@H]2CC(=O)N[C@]2(C)C(/C(C)=N/NC(N)=O)=CC[C@@H]32)C1
- IC50 (MCF7 [1]): 17.4 µM
- IC50 (MDA-MB-231 [2]): 19.2 µM
- IC50 (A549): 29 µM
- IC50 (HT-29): 28.5 µM

SMILES: CC(=O)O[C@H]1CC[C@@]2(C)[C@@H](CC[C@H]3[C@@H]4CC=C(/C(C)=N/NC(=O)Nc5ccccc5)[C@@]4(C)C(=O)C[C@@H]32)C1
- IC50 (MCF7 [1]): 11.6 µM
- IC50 (MDA-MB-231 [2]): 15.5 µM
- IC50 (A549): 22.7 µM
- IC50 (HT-29): 17.6 µM

SMILES: CC(=O)O[C@H]1CC[C@@]2(C)[C@@H](CC[C@H]3[C@@H]4CC=C(/C(C)=N/NC(=S)Nc5ccccc5)[C@@]4(C)C(=O)C[C@@H]32)C1
- IC50 (MCF7 [1]): 2.16 µM
- IC50 (MDA-MB-231 [2]): 10.4 µM
- IC50 (A549): 7.68 µM
- IC50 (HT-29): 10.6 µM
- Ratio IC50 (MDA-MB-231 [3]): >10
- Ratio IC50 (MCF7 [4]): >10

SMILES: CC(=O)O[C@H]1CC[C@@]2(C)[C@@H](CC[C@@H]3[C@@H]2CC(=O)N[C@]2(C)C(/C(C)=N/NC(=S)Nc4ccccc4)=CC[C@@H]32)C1
- IC50 (MCF7 [1]): 19.1 µM
- IC50 (MDA-MB-231 [2]): 25.9 µM
- IC50 (A549): 35.1 µM
- IC50 (HT-29): 34 µM

SMILES: CC(=O)O[C@H]1CC[C@@]2(C)[C@@H](CC[C@@H]3[C@@H]2CC(=O)N[C@]2(C)C(/C(C)=N/NC(=O)Nc4ccccc4)=CC[C@@H]32)C1
- IC50 (MCF7 [1]): 35.8 µM
- IC50 (MDA-MB-231 [2]): > 40 µM
- IC50 (A549): > 40 µM
- IC50 (HT-29): > 40 µM

SMILES: CC(=O)O[C@H]1CC[C@@]2(C)[C@@H](CC[C@H]3[C@@H]4CC=C(/C(C)=N/NC(N)=S)[C@@]4(C)C(=O)C[C@@H]32)C1
- IC50 (MCF7 [1]): 1.59 µM
- IC50 (MDA-MB-231 [2]): 2.67 µM
- IC50 (A549): 5.44 µM
- IC50 (HT-29): 6.72 µM
- IC50 (HUVEC): > 100 µM
- Activity (MDA-MB-231 [5]): Tde
- Activity (MDA-MB-231 [6]): Tde
- viability at 10 µM (MDA-MB-231 [7]): 77.4%
- viability at 10 µM (MDA-MB-231 [8]): 74.1%
- viability at 10 µM (MDA-MB-231 [9]): 68.8%
- Activity (MDA-MB-231 [10]): 5.9%
- Activity (MDA-MB-231 [11]): 6.3%
- Activity (MDA-MB-231 [12]): 7.8%
- Activity (MDA-MB-231 [13]): 9.5%
- Activity (MDA-MB-231 [14]): 12.1%
- Activity (MDA-MB-231 [15]): 15.2%
- Activity (MDA-MB-231 [16]): 7.2%
- Activity (MDA-MB-231 [17]): 7.5%
- Activity (MDA-MB-231 [18]): 8.2%
- Activity (MDA-MB-231 [19]): 14.82%
- Activity (MDA-MB-231 [20]): 39.79%
- Activity (MDA-MB-231 [21]): 54.95%
- Activity (MCF7 [22]): 25.52%
- Activity (MCF7 [23]): 44.95%
- Activity (MCF7 [24]): 67.72%
- Activity (MCF7 [25]): Dose-dependent effect
- Activity (MDA-MB-231 [26]): Dose-dependent effect
- inhibition (MDA-MB-231 [27]): Active
- Activity (MDA-MB-231 [28]): Active
- Ratio IC50 (MDA-MB-231 [3]): >10
- Ratio IC50 (MCF7 [4]): >10

SMILES: CC(=O)O[C@H]1CC[C@@]2(C)[C@@H](CC[C@@H]3[C@@H]2CC(=O)N[C@]2(C)C(/C(C)=N/NC(N)=S)=CC[C@@H]32)C1
- IC50 (MCF7 [1]): 15.1 µM
- IC50 (MDA-MB-231 [2]): 16.6 µM
- IC50 (A549): 28.9 µM
- IC50 (HT-29): 27 µM

SMILES: CC(=O)O[C@H]1CC[C@@]2(C)[C@@H](CC[C@@H]3[C@@H]2CC(=O)N[C@]2(C)C(/C(C)=N/NC(=S)Nc4ccc(C(F)(F)F)cc4)=CC[C@@H]32)C1
- IC50 (MCF7 [1]): 22.7 µM
- IC50 (MDA-MB-231 [2]): 25.4 µM
- IC50 (A549): 36.3 µM
- IC50 (HT-29): 34.1 µM

SMILES: CC(=O)O[C@H]1CC[C@@]2(C)[C@@H](CC[C@@H]3[C@@H]2CC(=O)N[C@]2(C)C(/C(C)=N/NC(=S)Nc4ccccc4C)=CC[C@@H]32)C1
- IC50 (MCF7 [1]): 29.6 µM
- IC50 (MDA-MB-231 [2]): > 40 µM
- IC50 (A549): > 40 µM
- IC50 (HT-29): 37.5 µM

SMILES: C[C@@H]1CC[C@@]2(OC1)O[C@H]1C[C@H]3[C@@H]4CC[C@H]5C[C@@H](O)CC[C@]5(C)[C@H]4CC(=O)[C@]3(C)[C@H]1[C@@H]2C
- IC50 (MCF7 [1]): 28.7 µM
- IC50 (MDA-MB-231 [2]): 31.2 µM
- IC50 (A549): > 40 µM
- IC50 (HT-29): > 40 µM
- IC50 (HUVEC): > 100 µM
